Results: ChEMBL document CHEMBL4840328, “The Phytochemical Scoulerine Inhibits Aurora Kinase Activity to Induce Mitotic and Cytokinetic Defects” (J Nat Prod, 2021)
pEC50, pIC50: −log10 of the molar value. Active and inactive are the calls of the source. The rule behind the calls is not given here.

Key:
HRPE [1] = experiment: Induction of cell cycle arrest in human RPE cells expressing MYC-Bcl2 assessed as disorganized NUMA1 at 4 uM for 6 hrs by immunostaining analysis; assay type: functional, cell-based
NCI-H23 = experiment: Cytotoxicity against human NCI-H23 cells harboring MYC assessed as cell viability measured after 72 hrs by MTT assay; assay type: functional, cell-based; settings: NCI-H23, 72 h
NCI-H460 = experiment: Cytotoxicity against human NCI-H460 cells assessed as centrosome amplification and declustering by measuring multiple foci by immunostaining analysis; assay type: functional, cell-based; settings: time 72.0 hrs
[2] = molecular target: T1, Aurora kinase A (Homo sapiens) (UniProt O14965); experiment: Inhibition of AURKA (unknown origin) in HRPE cells overexpressing MYC/Bcl2 assessed as inhibition of autophosphorylation of threonine 288 at 20 uM measured for 6 hrs by immunostaining based fluorescence microscopic analysis; assay type: cell-based
T1 sequence (whole entry): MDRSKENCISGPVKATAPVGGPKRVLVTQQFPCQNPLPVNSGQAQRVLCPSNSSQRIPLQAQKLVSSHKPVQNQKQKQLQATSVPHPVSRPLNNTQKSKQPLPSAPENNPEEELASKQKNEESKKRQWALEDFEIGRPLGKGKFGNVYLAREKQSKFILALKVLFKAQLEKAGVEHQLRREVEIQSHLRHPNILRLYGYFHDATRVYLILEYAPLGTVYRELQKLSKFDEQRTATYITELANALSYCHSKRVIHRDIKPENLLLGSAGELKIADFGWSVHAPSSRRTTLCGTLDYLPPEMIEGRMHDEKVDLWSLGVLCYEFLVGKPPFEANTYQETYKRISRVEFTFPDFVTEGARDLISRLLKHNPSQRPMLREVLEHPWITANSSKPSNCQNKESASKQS

A549 = experiment: Cytotoxicity against human A549 cells assessed as cell viability measured after 72 hrs by MTT assay; assay type: functional, cell-based; settings: A549, 72 h
HRPE [3] = experiment: Cytotoxicity against HRPE cells overexpressing MYC-H2BGFP assessed as cell viability measured after 72 hrs by MTT assay; assay type: functional, cell-based; settings: Homo sapiens
[4] = Cytotoxicity against HRPE cells overexpressing MYC/Bcl2 assessed as cell viability measured after 72 hrs by MTT assay; assay type: functional, cell-based; settings: Homo sapiens
HRPE [5] = experiment: Induction of mitotic arrest in HRPE Cells overexpressing MYC-Bcl2 measured for 46 to 62 hrs by time-lapse analysis; assay type: functional, tissue-based; settings: Homo sapiens, dose 2-4 µM, time 46-62 hrs
SW480 = experiment: Cytotoxicity against human SW480 cells assessed as cell viability measured after 72 hrs by MTT assay; assay type: functional, cell-based; settings: SW480, 72 h
[6] = Cytotoxicity against human wild type p53HCT116 cells assessed as cell viability measured after 72 hrs by MTT assay; assay type: functional, cell-based; settings: p53HCT116, 72 h
HRPE [7] = experiment: Induction of cell cycle arrest in human RPE cells expressing MYC-Bcl2 assessed as foci in colocalized Aurora kinase A at 4 uM for 6 hrs by immunostaining analysis; assay type: functional, cell-based
HeLa = experiment: Cytotoxicity against human HeLa cells assessed as cell viability measured after 72 hrs by MTT assay; assay type: functional, cell-based
[8] = Induction of mitotic arrest in HRPE Cells overexpressing MYC measured for 24 hrs by acridine orange staining based fluorescence microscopic analysis; assay type: functional, tissue-based, Homo sapiens
HRPE [9] = experiment: Induction of cell cycle arrest in human RPE cells expressing MYC-Bcl2 assessed as disorganized alpha-tubulin at 4 uM for 6 hrs by immunostaining analysis; assay type: functional, cell-based
HRPE [10] = experiment: Induction of mitotic arrest in HRPE Cells overexpressing MYC at 20 uM by acridine orange staining based fluorescence microscopic analysis; assay type: functional, tissue-based; settings: Homo sapiens
[11] = Induction of mitotic arrest in HRPE Cells overexpressing MYC assessed as polyploidy measured for 48 hrs by acridine orange staining based fluorescence microscopic analysis; assay type: functional, tissue-based, Homo sapiens
MDA-MB-231 = experiment: Cytotoxicity against human MDA-MB-231 cells assessed as cell viability measured after 72 hrs by MTT assay; assay type: functional, cell-based; settings: MDA-MB-231, 72 h
[12] = Cytotoxicity against HRPE cells overexpressing MYC assessed as cell viability measured after 72 hrs by MTT assay; assay type: functional, cell-based; settings: Homo sapiens
[13] = molecular target: Aurora kinase B (Homo sapiens) (UniProt Q96GD4); experiment: Inhibition of AURKB (unknown origin) in HRPE cells overexpressing MYC/Bcl2 assessed as decrease in H3PS10 fluorescence intensity at 20 uM measured for 6 hrs by immunostaining based fluorescence microscopic analysis; assay type: cell-based
HRPE [14] = experiment: Induction of cell cycle arrest in HRPE cells overexpressing MYC/Bcl2 assessed as centrosome amplification measured after 6 hrs by DAPI staining based analysis; assay type: functional; settings: Homo sapiens
HRPE [15] = experiment: Induction of cell cycle arrest in human RPE cells expressing MYC-Bcl2 assessed as foci in colocalized gamma-tubulin at 4 uM for 6 hrs by immunostaining analysis; assay type: functional, cell-based
HRPE [16] = experiment: Induction of mitotic arrest in HRPE Cells overexpressing MYC assessed as polyploidy at 5 uM by acridine orange staining based fluorescence microscopic analysis; assay type: functional, tissue-based; settings: Homo sapiens
[17] = Cytotoxicity against human HCT116-p53-null cells assessed as cell viability measured after 72 hrs by MTT assay; assay type: functional, cell-based

Sequence of Aurora kinase B (Homo sapiens) (Q96GD4 whole entry): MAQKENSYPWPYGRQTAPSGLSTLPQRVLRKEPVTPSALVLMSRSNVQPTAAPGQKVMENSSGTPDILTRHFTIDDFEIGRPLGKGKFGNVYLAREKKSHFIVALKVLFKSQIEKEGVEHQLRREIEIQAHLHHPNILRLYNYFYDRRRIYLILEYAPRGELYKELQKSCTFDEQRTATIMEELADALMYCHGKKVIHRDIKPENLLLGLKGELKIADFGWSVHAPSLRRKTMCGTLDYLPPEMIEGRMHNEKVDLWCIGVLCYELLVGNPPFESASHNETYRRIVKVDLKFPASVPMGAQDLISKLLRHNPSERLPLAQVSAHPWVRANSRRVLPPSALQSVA

**Q.** For `CCN(CCCOc1ccc2c(Nc3cc(CC(=O)Nc4cccc(F)c4)[nH]n3)ncnc2c1)CCOP(=O)(O)O`, which Activity (HRPE [1]) is on record?
**A.** inactive

**Q.** With `COc1cc2c(cc1O)[C@@H]1Cc3ccc(OC)c(O)c3CN1CC2` [SCOULERINE] as the compound, how does the pIC50 (NCI-H23) read?
**A.** 5.59

**Q.** And the Activity (NCI-H460)?
**A.** Active

**Q.** And the inhibition [2]?
**A.** Active

**Q.** And the pIC50 (A549)?
**A.** 4.58

**Q.** What about the Activity (HRPE [3]) of the same compound?
**A.** inactive

**Q.** What about the pIC50 [4] of the same compound?
**A.** 5.34

**Q.** And the Activity (HRPE [5])?
**A.** Dose-Dependent Effect

**Q.** And the pIC50 (SW480)?
**A.** 5.37

**Q.** What about the pIC50 [6] of the same compound?
**A.** 5.17

**Q.** What about the Activity (HRPE [7]) of the same compound?
**A.** Active

**Q.** What about the pIC50 (HeLa) of the same compound?
**A.** 5.17

**Q.** And the pEC50 [8]?
**A.** 5.45

**Q.** What about the Activity (HRPE [9]) of the same compound?
**A.** Active

**Q.** And the Activity (HRPE [10])?
**A.** inactive

**Q.** What about the pEC50 [11] of the same compound?
**A.** 5.44

**Q.** And the pIC50 (MDA-MB-231)?
**A.** 5.14

**Q.** And the pIC50 [12]?
**A.** 5.39

**Q.** What about the inhibition [13] of the same compound?
**A.** Active

**Q.** And the Activity (HRPE [14])?
**A.** inactive

**Q.** And the Activity (HRPE [15])?
**A.** Active

**Q.** What about the Activity (HRPE [16]) of the same compound?
**A.** Active

**Q.** What about the Activity (HRPE [1]) of the same compound?
**A.** Active

**Q.** What about the pIC50 [17] of the same compound?
**A.** 5.26

**Q.** For `COc1cc(Nc2ncc3c(n2)-c2ccc(Cl)cc2C(c2c(F)cccc2OC)=NC3)ccc1C(=O)O`, which Activity (HRPE [3]) is on record?
**A.** Active

**Q.** With `COc1cc2c(cc1OC)[C@@H]1Cc3ccc(OC)c(OC)c3CN1CC2` as the compound, how does the Activity (HRPE [10]) read?
**A.** inactive

**Q.** With `COc1cc2c(cc1O)[C@@H]1Cc3ccc(O)c(OC)c3CN1CC2` as the compound, how does the Activity (HRPE [10]) read?
**A.** inactive
